Measured values as given in patent US9402875B2, “Amidated dopamine neuron stimulating peptide restoration of mitochondrial activity” (University of Kentucky Research Foundation, priority 2006, dated 2016).
“Also recorded” adds a separate entry of the source. Ends that are not written are not given here.

Legend:
[1] = tested on: MN9D cells; assay: Oxygen consumption rate (Seahorse XF-24); type: cell-based
Procedure: Real-time measurement of oxygen consumption rate (OCR) of intact DNSP-11-treated MN9D cells, in the presence and absence of Complex I toxins, rotenone 1-5 ηM or TaClo 100-150 μM, were performed utilizing the Seahorse XF-24 extracellular flux analyzer. This instrument allows the simultaneous measurement of the mitochondrial bioenergetics from […] cell culture samples, without the mitochondrial isolation (and thus higher quantities of sample) needed for the standard (lower throughput) Clark-type electrode chamber. Details regarding the methods used for the Seahorse analysis were recently described in detail (Sauerbeck et al., Journal of Neuroscience Methods 198:36-43 (2011) incorporated herein by reference).
Briefly, following sensor preparation, calibration, and dose optimization, the basal and maximal oxygen consumption rates (OCR) were measured in intact MN9D neuronal cells in the absence and presence of 1 μM DNSP-11. […] Following electron transport chain uncoupling by 100 nM FCCP to measure the maximal OCR, treatment of MN9D neurons with DNSP-11 had nearly a 60% increase (p<0.001) versus control.

[2] = tested on: MN9D dopaminergic cells; assay: TUNEL assay, protection against 6-OHDA toxicity; type: cell-based; conditions: 1 ng/mL for 1 hour before 100 μM 6-OHDA for 15 min; at 24 h
Procedure: MN9D Cell Cultures: The MN9D cell line has been described by Choi (1991) Brain Res. 552:67-76 and was a gift from Michael Zigmond. Cells were cultured in DMEM supplemented with 10% Fetal Bovine Serum (FBS, Hyclone), 50 U/mL penicillin and streptomycin. For experiments, the cells were plated on 24-well poly-D-lysine in DMEM with 1% (v/v) penicillin-streptomycin. The cells were grown at 37° C. in 5% CO2.
Terminal dUTP Nick-End Labeling (TUNEL) Assay in MN9D Cells: After treatment with DNSP-11, MN9D cells were fixed and labelled to assess degenerative nuclear changes as indicated by the extent of high-molecular weight DNA strand breaks. DNA fragmentation was detected by using steptavidin-horseradish peroxidise conjugate followed by the substrate diaminobenzidine (DAB) generating a colored precipitate. Ratios between apoptotic and total cells were determined (4 random fields/well; 4 wells/ group). Experiments were repeated 3 times.
To evaluate DNSP-11's neuroprotective properties, DNSP-11 was compared to GDNF in its protection against 6-OHDA-induced toxicity in the dopaminergic cell line, MN9D. MN9D dopaminergic cells were incubated for 1 hour with either citrate buffer (control), 1 ng/mL of DNSP-11 or GDNF prior to 100 μM 6-OHDA exposure for 15 min. […]

[3] = tested on: unilateral 6-OHDA-lesioned rats; assay: Neurochemical content of tissue (HPLC-EC); type: in vivo, rat; conditions: 5 weeks after infusion
Procedure: Unilateral 6-OHDA Lesions: The 6-OHDA solution was delivered to two injection sites along the medial forebrain bundle (MFB) using a protocol described by Lundblad et al. (2002) Eur. J. Neurosci. 15:120-132. Five weeks after the unilateral 6-OHDA MFB lesion procedure, animals were grouped based on apomorphine (0.05 mg/kg, s.c.)-induced rotational behaviour: Animals with >300 rotations per 60 minutes were selected. Lesioned animals received 5 vit of either a 20 μg/vd, DNSP-11 solution or citrate buffer vehicle solution in a manner similar to infusion delivery in normal animals.
Neurochemical Content of Tissue: Lesioned animals were euthanized 5 weeks after DNSP-11 or vehicle infusion. The brains were sliced into 1 mm thick sections. […]
The in vitro studies and in vivo measures of the effects of DNSP-11 led to an investigation of the potential neurorestorative properties of DNSP-11 to damaged dopamine neurons in a unilateral rat model of PD. […] At 5 weeks, the substantia nigra and striatum from each rat was analyzed by high performance liquid chromatography coupled with electrochemical detection.
Rats were tested 3-4 weeks after the injection of 6-OHDA using low-dose (0.05 mg/kg, i.p.) apomorphine to induce rotational behavior. […] At 5 weeks, the substantia nigra and striatum from each rat was analyzed by high performance liquid chromatography coupled with electrochemical detection.

[4] = tested on: mitochondria of substantia nigra and striatum; assay: Mitochondrial State III respiration 28 days after bilateral intranigral DNSP-11; type: in vivo, rat; conditions: 28 days post bilateral intranigral 30 μg
Procedure: Six five-month-old male F344 rats received bilateral intranigral injections of 30 μg DNSP-11. Six age and sex-matched controls received injections of the same volume of vehicle (citrate buffer). Twenty-eight days after test material administration, the animals were euthanized by CO2 anesthesia and the brain samples rapidly dissected. The striatum and substantia nigra were isolated quickly and carefully using a rat brain matrix for F344 rats.
Mitochondrial respiration was assessed using a miniature Clark-type electrode, in a sealed, thermostatic and continuously stirred chamber. Mitochondria were added to the chamber to yield a final protein concentration of 1 mg/ml. The substrate concentrations were 5.0 mM/2.5 mM for glutamate/malate and pyruvate/malate or 10 mM for succinate+[…] rotenone or α-glycerophosphate. State 3 respiration was initiated by the addition of 150 ηmols ADP. The respiratory control ratio was calculated as respiration in the presence of ADP (state 3)/respiration in absence of ADP (state 4). ADP/0 ratios were determined by dividing the amount of ADP phosphorylated during State III respiration by the amount of oxygen consumed. NAD-linked substrates, e.g. glutamate and pyruvate, utilize complexes I, III, IV in their oxidation, succinate utilizes complexes II, III, IV and α-glycerophosphate ultilizes III, IV. […]

With “PPEAPAEDRSL-NH2 [DNSP-11, PPEAPAEDRSL-amide]” the “basal and maximal OCRs, protection from rotenone” value ([1]; 1 nM, 2.5 nM and 5 nM rotenone) was “protection”, the “basal OCR vs control treatment” value ([1]; 1 μM DNSP-11) was “no significant effect” and the “reserve respiratory capacity (ratio maximal/basal OCR)” value ([1]; 1 μM DNSP-11) was “significantly increases”. The “maximal OCR, increase versus control” value ([1]; 1 μM DNSP-11, uncoupling by 100 nM FCCP, p<0.001) was ~60%, the “basal and maximal OCRs, protection from TaClo” value ([1]; 100 μM and 150 μM TaClo) was “protection” and the “percent of TUNEL positive cells” value [2] was “significant reduction”. The “DOPAC tissue content, substantia nigra” value ([3]; vehicle 7.10±1.40 ng/g) was 16.48 ± 4.01 ng/g, the “DA content, substantia nigra” value ([3]; vehicle 34.7±6.4 ng/g) was 59.1 ± 7.3 ng/g and the “State III oxygen consumption / oxidative phosphorylation vs vehicle” value ([4]; striatum) was “reached statistical significance; also recorded: increased”. For the same substance, the “State III oxygen consumption / oxidative phosphorylation vs vehicle” value ([4]; substantia nigra, n=2) was “trend towards an increase; also recorded: increased”.
